Results from patent US20240190876A1, “Tricyclic Urea Compounds As JAK2 V617F Inhibitors” (Incyte Corporation, priority 2022, published 2024).

Experiments:
[1] = molecular target: T1, catalytic domain (JH1) of human JAK2 (Homo sapiens, UniProt O60674); experiment: JAK2 LanthaScreen JH1 Binding Assay; conditions: 50 nM JAK2-JH1 tracer, 2 hours at 25° C., read-out: JH1 Bind IC50
T1 construct: catalytic domain (JH1, amino acids 826-1132) of human JAK2; FLAG (N); purchased Carna Biosciences 08-445-20N; host or cells: baculovirus expression system
T1 sequence (O60674 826-1132): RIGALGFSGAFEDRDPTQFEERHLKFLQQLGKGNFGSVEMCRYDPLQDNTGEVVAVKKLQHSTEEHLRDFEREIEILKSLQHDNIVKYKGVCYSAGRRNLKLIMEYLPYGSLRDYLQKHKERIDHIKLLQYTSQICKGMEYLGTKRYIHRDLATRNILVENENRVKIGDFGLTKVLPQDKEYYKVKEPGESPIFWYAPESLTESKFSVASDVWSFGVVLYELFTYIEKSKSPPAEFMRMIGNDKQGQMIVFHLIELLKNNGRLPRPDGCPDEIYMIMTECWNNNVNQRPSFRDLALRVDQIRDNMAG
Description: JAK2 JH1 binding assay utilizes catalytic domain (JH1, amino acids 826-1132) of human JAK2 expressed as N-terminal FLAG-tagged, biotinylated protein in a baculovirus expression system (Carna Biosciences, Product #08-445-20N). The assay was conducted in black 384-well polystyrene plates in a final reaction volume of 20 μL. JAK2 JH1 (1.5 nM) was incubated with compounds (100 nL serially diluted in DMSO) in the presence of 50 nM fluorescent JAK2-JH1 tracer and 0.5 nM Streptavidin-Tb cryptate (Cisbio Part #610SATLB) in assay buffer (50 mM Tris, pH=7.5, 10 mM MgCl2, 0.01% Brij-35, 0.1% BSA, 1 mM EGTA, 5% Glycerol and 5 mM DTT). Non-specific binding was accessed in the presence of 2 mM ATP. After incubation for 2 hours at 25° C., LanthaScreen signals were read on a PHERAstar FS plate reader (BMG LABTECH). Data was analyzed with IDBS XLfit and GraphPad Prism 5.0 software using a four parameter dose response curve to determine IC50 for each compound.

[2] = test system: Phospho-STAT5 (Tyr694) in SET-2 cells; experiment: STAT5 (Tyr694) Phosphorylation Cell Based Assay; conditions: Homo sapiens, pSTAT5 (Tyr694) HTRF, 2 hours, RPMI with 10% FBS, read-out: SET2 IC50
Description: SET-2 cells was purchased from DSMZ (Germany). RPMI1640 medium, Fetal Bovine Serum and 384-white sold flat-bottom small volume plate were purchased from Thermo Fisher Scientific (Waltham, MA). Phospho-STAT5 (Tyr694) HTRF kit was purchased from Perkin Elmer (Waltham, MA).
SET-2 cells were cultured in RPMI media with 20% FBS at 37° C. in humidified incubator supplied with 5% CO2. On the day of assay, the cells were centrifuged to remove the culture media and resuspended with prewarmed RPMI with 10% FBS.
Testing compounds were prepared by serial dilution in DMSO and 50 nL/well test compounds were transferred to the 384 white low volume cell culture plate (Greiner Bio-one) by ECHO liquid handler (Labcyte). The cells were then dispensed with Multidrop (Thermo Fisher, Waltham, MA) at 10 μL/well (7×10^6 cells/mL) with 0.5% DMSO in the final assay. After the treated cells were incubated for 2 hours at 37° C./5% CO2 incubator, 4 μL/well supplemented lysis buffer (100X blocking buffer diluted 25 fold in 4X lysis buffer, Perkin Elmer) were added and incubated at room temperature for 90 min on orbital shaker at 600 rpm. Phospho-STAT5 Cryptate antibody and Phospho-STAT5 d2 antibody (1:1 vol/vol) were premixed and diluted 20 fold with in the detection buffer (Perkin Elmer). 4 μL of the premixed antibody solution were added to each well followed with 24 hours incubation at room temperature on orbital shaker at 600 rpm. The product activity was determined by measuring the fluorescence at 620 nm and 665 nm on Pherastar microplate reader (BMG Labtech). A ratio is calculated (665/620) for each well. Wells with DMSO only served as the positive controls and wells containing high concentration of control compound were used as negative controls. IC50 determination was performed by fitting the curve of percent control activity versus the log of the compound concentration using the GraphPad Prism 7.0 software.

[3] = test system: pSTAT5 signaling in SET-2 cells in whole blood; experiment: pSTAT5 SET-2 Whole Blood MSD Assay; assay type: cell-based; conditions: Homo sapiens, SET-2 cells with whole blood, 2 hour incubation, read-out: SET2 WB IC50
Description: SET-2 cells shipped from ABS, RPMI1640 medium, Fetal Bovine Serum from Gibco, Phospho-STAT5a,b Whole Cell Lysate Kit from Mesoscale, Retronectin (Recombinant Human Fibronectin Fragment) from TaKaRa, 96 well cell culture plate flat bottom from Corning, lysis buffer from Cell Signaling Technology, and sterile PBS from Gibco. Whole Blood from by BioIVT.
SET-2 cells were cultured in RPMI media with 20% FBS at 37° C. humidified incubator supplied with 5% CO2. On the day of the assay, 40 μL per well of diluted retronectin working solution was added to sterile 96-well clear flat bottom tissue culture plates (1:200 dilution of retronectin in sterile PBS) and incubated at 37C for 1 hour. After 1 hour, the retronectin working solution was aspirated and SET-2 cells were seeded at 100,000/well in RPMI+20% FBS. Cells were incubated overnight at 37° C. and 5% CO2.
The next day, the medium was removed and 40 μL of diluted compounds in serum-free RPMI and whole blood was added to the cells for a 2 hour incubation at 37° C. and 5% CO2. The compound starting concentration is 20 μM and 2.5 fold serial diluted down to 0.21 nM. The whole blood and compound mixture was then aspirated off using the BlueCat plate washer and washed 1× with PBS. Cells were lysed by adding 40 μL of 3X complete lysis buffer and shaken at room temperature for 45-60 minutes (complete lysis buffer consists of Cell Signaling Technology lysis buffer diluted to 3X and supplemented with Mesoscale's protease inhibitor, phosphatase I inhibitor, and phosphatase II inhibitor). The pSTAT5 MSD plates were blocked by adding 150 μL of Blocker A solution per well to the MSD plates and incubated at room temperature with shaking at 400 rpm for one hour or longer. After blocking, plates were washed 3X with 300 μL/well of IX Tris Wash Buffer. After lysis, added 25 μL per well of lysed sample was added to MSD plate and incubated with shaking at 4° C. wrapped in foil overnight. The next day, plates were washed again and 25 μL/well of diluted 1X Detection Antibody Solution, wrapped in foil, and incubated at room temperature with shaking at 400 rpm for 1 hour.
Plates were then washed again and lastly, 150 μL/well of 1X Read Buffer T was added to all wells. Plates were analyzed on MSD Discovery within 5 minutes. […] Data analysis was performed in GraphPad Prism using a 4-parameter fit and data was reported as Average ±SD.

Structure (SMILES)	IC50 [1]	IC50 [2]	IC50 [3]
COc1ccc(-c2c(-c3cn(C)nc3OC)[nH]c3ncc4c(c23)n([C@H]2CC[C@@](C)(NC(=O)C3CC3)CC2)c(=O)n4C)cc1 [Example 1, N-((1s,4s)-4-(7-(3-Methoxy-1-methyl-1H-pyrazol-4-yl)-8-(4-methoxyphenyl)-3-methyl-2-oxo-3,6-dihydroimidazo[4,5-d]pyrrolo[2,3-b]pyridin-1(2H)-yl)-1-methylcyclohexyl)cyclopropanecarboxamide]	> 1000 nM	≤ 300 nM	2500 to 5000 nM
[2H]C([2H])([2H])n1cc(-c2[nH]c3ncc4c(c3c2-c2ccc3c(cnn3C([2H])([2H])[2H])c2)n([C@H]2CC[C@@](C)(NC(=O)C3CC3)CC2)c(=O)n4C)c(F)n1 [Example 4, N-((1s,4s)-4-(7-(3-fluoro-1-(methyl-d3)-1H-pyrazol-4-yl)-3-methyl-8-(1-(methyl-d3)-1H-indazol-5-yl)-2-oxo-3,6-dihydroimidazo[4,5-d]pyrrolo[2,3-b]pyridin-1(2H)-yl)-1-methylcyclohexyl)cyclopropanecarboxamide]	> 1000 nM	≤ 300 nM	≤ 2500 nM
[2H]C([2H])([2H])n1ncc2cc(-c3c(-c4cn(CC)nc4F)[nH]c4ncc5c(c34)n([C@H]3CC[C@@](C)(NC(=O)C4CC4)CC3)c(=O)n5C)ccc21 [Example 5, N-((1s,4s)-4-(7-(1-Ethyl-3-fluoro-1H-pyrazol-4-yl)-3-methyl-8-(1-(methyl-d3)-1H-indazol-5-yl)-2-oxo-3,6-dihydroimidazo[4,5-d]pyrrolo[2,3-b]pyridin-1(2H)-yl)-1-methylcyclohexyl)cyclopropanecarboxamide]	> 1000 nM	≤ 300 nM	≤ 2500 nM
[2H]C([2H])([2H])n1cc(-c2[nH]c3ncc4c(c3c2-c2ccc(OC)cc2)n([C@H]2CC[C@@](C)(NC(=O)[C@H]3C[C@H]3F)CC2)c(=O)n4C([2H])([2H])[2H])c(F)n1 [Example 6, (1R,2R)-2-Fluoro-N-((1s,4S)-4-(7-(3-fluoro-1-(methyl-d3)-1H-pyrazol-4-yl)-8-(4-methoxyphenyl)-3-(methyl-d3)-2-oxo-3,6-dihydroimidazo[4,5-d]pyrrolo[2,3-b]pyridin-1(2H)-yl)-1-methylcyclohexyl)cyclopropane-1-carboxamide]	> 1000 nM	≤ 300 nM	≤ 2500 nM
[2H]C([2H])([2H])n1ncc2cc(-c3c(-c4cn(C)nc4OC)[nH]c4ncc5c(c34)n([C@H]3CC[C@@](C)(NC(=O)C4CC4)CC3)c(=O)n5C)ccc21 [Example 2, N-((1s,4s)-4-(7-(3-Methoxy-1-methyl-1H-pyrazol-4-yl)-3-methyl-8-(1-(methyl-d3)-1H-indazol-5-yl)-2-oxo-3,6-dihydroimidazo[4,5-d]pyrrolo[2,3-b]pyridin-1(2H)-yl)-1-methylcyclohexyl)cyclopropanecarboxamide]	> 1000 nM	≤ 300 nM	≤ 2500 nM
[2H]C([2H])([2H])n1cc(-c2[nH]c3ncc4c(c3c2-c2ccc(OC)cc2)n([C@H]2CC[C@@](C)(NC(=O)C3CC3)CC2)c(=O)n4C)c(F)n1 [Example 3, N-((1s,4s)-4-(7-(3-fluoro-1-(methyl-d3)-1H-pyrazol-4-yl)-8-(4-methoxyphenyl)-3-methyl-2-oxo-3,6-dihydroimidazo[4,5-d]pyrrolo[2,3-b]pyridin-1(2H)-yl)-1-methylcyclohexyl)cyclopropanecarboxamide]	> 1000 nM	≤ 300 nM	2500 to 5000 nM
